{
  "source": "patent US8802240B2",
  "about": "“Uses of formulations of thyroid hormone analogs and nanoparticulate forms thereof to increase chemosensitivity and radiosensitivity in tumor or cancer cells” (Nanopharmaceuticals LLC, priority 2011, dated 2014)",
  "key": {"GL261 cells": {"system": "GL261 cells", "assay": "GL261 apoptosis and necrosis with or without 5 Gy x-rays", "type": "cell-based, murine", "settings": "Tetrac 2 μM, T-NP 0.2 μM", "description": "Apoptotic cells were identified using TUNEL staining (Terminal deoxynucleotidyl transferase dUTP nick end labeling (TUNEL)) (staining kit obtained from Oncor, Gaithersberg, Md.; ApoTag) (See Gavrieli et al., J. Cell. Biol. 1992. 119:493-501). The staining procedures were carried out as instructed by the manufacturer. Gill's hematoxylin was used as a counterstain to discriminate negative cells (purple) from positive cells (brown). Negative controls were performed by omitting the terminal deoxynucleotidyl transferase enzyme. Positive controls were performed by incubating cells with Dnase I (3000 U/ml) in 50 mM Tris-HCl, pH 7.5, in 1 mg/ml bovine serum albumin (BSA) for 10 min at ambient temperature.\nTo perform FCM, a total of 10^6 adherent cells were trypsinized and washed once in ambient temperature PBS. They were then fixed in 70% ethanol, and stored overnight, at 4° C. […] Cells were left overnight at 4° C. in the dark and were then analyzed on a Coulter fluorescence-activated cell sorter (Coulter Electronics, Hialeah, Fla.). Cells were excited with a single 488 nm argon laser and the resulting fluorescence was detected using a 585 nm filter. Linear red-orange fluorescence (FL3) data were collected in list format and 10,000 events were collected. The distribution of cells within the cell cycle (sub-G1, G1, S, and G2+M phases) was determined using a Coulter software program."}, "[1]": {"system": "GL261 murine brain tumor cells", "assay": "GL261 growth curve, colony forming efficiency and cell size", "type": "cell-based", "description": "1×10^5 cells per 25 cm^2 flask at time zero (density 40 cells/mm^2). Three flasks were utilized at each time period. The medium in the flasks was not changed over the duration of the growth curve (unfed cultures). Data were taken daily from day zero to day 11.5 post-seeding and cell numbers, age distributions, and apoptotic percentages were determined. After growth curve shapes (without and with 2 μM Tetrac) were determined, irradiation times at 70 and 270 hour post-seeding were chosen.\nTo obtain exponential and plateau phase cell numbers, we trypsinized ([…] trypsin-EDTA) cells for 5 min at 37° C.\nFor determination of CCDTs, the cell numbers per flask were determined on a daily basis. A four-day interval in the exponential region of growth to obtain the CCDTs, yielding a total of 12 estimations for analysis was utilized. A regression analysis was performed using the (log) of the cell number versus the linear time in days (SigmaPlot, V. 10, Systat Software, Inc., Point Richmond, Calif.). The log slope value and its standard error (SE) were determined, and the SE was converted to the 95% confidence limits using a two-tailed t-table at N−1 degrees of freedom where N is the number of samples. (See Goldstein, A. In: Biostatistics, New York, The MacMillan Co., 1964, p. 140-146)."}, "human cancer xenografts": {"system": "human cancer xenografts", "settings": "in vivo; cited from earlier work"}, "TTR (Transthyretin)": {"biological_target": "TTR (Transthyretin) (Homo sapiens, UniProt P02766)", "assay": "TTR displacement assay", "type": "binding", "description": "Determination of the optimal or preferred density of the thyroid hormone or thyroid hormone analog bound to the nanoparticles is within the routine skill level in the art. For example, those skilled in the art will recognize that TTR (Transthyretin) can be used as the basis for a displacement assay in order to quantify the amount of Tetrac bound to nanoparticles. Specifically, such assays involve in vitro displacement of radiolabeled T4 from TTR by Tetrac or Tetrac nanoparticles (Tetrac NP). […] Amounts of nanoparticulate Tetrac in unknown suspensions (i.e., biologic fluids) are then calculated from the displacement of radiolabeled T4. […] The tubes are mixed and incubated for 16 hours at 4° C. The bound and free hormones are separated by adding dextran-coated charcoal (DCC) to each tube, which is then centrifuged at 12,000×g for 2 min. at 4° C. Bound [I^125] T4 in the supernatant is measured by scintillation counting."}, "[2]": {"system": "GL261 murine brain tumor cells", "assay": "GL261 clonogenic survival after single doses of 250 kVp x-rays", "type": "cell-based", "description": "To irradiate 25 cm^2 flasks, an x-ray machine was used and (Philips 250 kVp Therapeutic X-ray Machine, Einhoven, […]) operated at 250 kVp and 15 mA with added filtration of 0.4 mm Thoreaus filter. The target to source distance was approximately 30 cm. Dose rates were measured using an R-meter (Victoreen R-meter, Cleveland, Ohio), and converted to absorbed (Gy) doses using appropriate temperature, pressure, and R to Gy conversion factors. The dose rate was 1 Gy per min. Flasks were irradiated at ambient temperature.\nFor […] analyses, survival data lying at or below 36.8% survival were analyzed by using the log fractional survival (log F×S) versus dose (D). Data were fit using linear regression analysis (SigmaPlot, V. 10, Systat Corp., Point Richmond, Calif.) to obtain the Y-intercept (or n, the extrapolation number) and the slope (1/D0), and their 95% confidence limits. (See Goldstein, A. In: Biostatistics, New York, The MacMillan Co., 1964, p. 140-146). The D0 value (Gy) is defined as the inverse of the slope, and the corrected Dq value (Gy) was then defined using the relationship: Dq(Gy)=ln n×D0(Gy) The 95% confidence limits on Dq were defined using error propagation. (See Chase, et al., In: Principles of Radioisotope Methodology. Minneapolis, Minn. Burgess Publ. Co., 1962, p. 68, 87-90). Statistics: LQ Analysis\nFor LQ analyses, data lying between a fractional survival of 1.00 and 0.05 were used. The fractional survival data at each dose were transformed using the relationship (−ln F×S/D) and plotted against dose (D). A regression analysis was performed to yield the LQ equation along with their 95% confidence limit values using a t-table with the appropriate (N−1) degrees of freedom. (See Goldstein, A. In: Biostatistics, New York, The MacMillan Co., 1964, p. 140-146).\nTo determine the Tetrac modification factor (TMF), the survival at 2 Gy obtained for control cells was divided by the survival at 2 Gy for Tetrac treated cells. The 95% confidence limits on the ratio were determined using error propagation techniques. (See Chase, et al. In: Principles of Radioisotope Methodology, Minneapolis, Minn., Burgress Publ. Co., 1962, p. 68, 87-90)."}},
  "data": [
    {"smiles": "O=C(O)Cc1cc(I)c(Oc2cc(I)c(O)c(I)c2)c(I)c1", "note": "[Tetrac, tetraiodothyroacetic acid]", "values": [
      {"measurement": "effect on necrosis, necrotic percentage at 120 hours (in words)", "setting": "GL261 cells", "result": "essentially additive"},
      {"measurement": "effect plus 5 Gy of x-rays on apoptosis (in words)", "setting": "GL261 cells", "result": "supra-additive"},
      {"measurement": "CFE (%)", "setting": "[1]; exponential cells (+Tetrac), control 30.6, with feeder cells", "result": 24.2, "unit": "%"},
      {"measurement": "size of Tetrac-treated cells relative to control (volumetric data)", "setting": "[1]; exponential phase", "result": 1.4, "unit": "times"},
      {"measurement": "size of Tetrac-treated cells relative to control (volumetric data)", "setting": "[1]; plateau phase", "result": 1.9, "unit": "times"},
      {"measurement": "systemic toxicity (in words)", "setting": "human cancer xenografts", "result": "have not to-date shown systemic toxicity"},
      {"measurement": "affinity of TTR relative to that for T4", "setting": "TTR (Transthyretin)", "result": 100, "unit": "times"},
      {"measurement": "sensitization of oxic and hypoxic cells (in words)", "setting": "[2]; 2 μM, graded doses of 250 kVp x-rays", "result": "sensitize both oxic and hypoxic cells equally"},
      {"measurement": "SF2 (fractional survival at 2 Gy)", "setting": "[2]; exponential phase with Tetrac, control 32.7", "result": "14.2 (10.8-18.8) %"},
      {"measurement": "increase of the D0 value after addition of Tetrac", "setting": "[2]; exponentially growing cells", "result": 15, "unit": "%"},
      {"measurement": "reduction of the Dq value after addition of Tetrac", "setting": "[2]; exponentially growing cells", "result": 100, "unit": "%"},
      {"measurement": "reduction of the extrapolation number n after addition of Tetrac", "setting": "[2]; exponentially growing cells", "result": 93, "unit": "%"},
      {"measurement": "reduction of n after addition of Tetrac", "setting": "[2]; plateau phase cells", "result": 93, "unit": "%"},
      {"measurement": "reduction of the D0 after addition of Tetrac", "setting": "[2]; plateau phase cells", "result": 6, "unit": "%"},
      {"measurement": "reduction of the Dq after addition of Tetrac", "setting": "[2]; plateau phase cells", "result": 100, "unit": "%"},
      {"measurement": "SF2 (fractional survival at 2 Gy)", "setting": "[2]; unfed plateau phase with Tetrac, control 20.6", "result": 7.6, "unit": "%"}
    ]}
  ]
}
